According to patent publication US20250206758A1, “SUBSTITUTED BRIDGED RING INHIBITOR, PREPARATION METHOD THEREFOR AND APPLICATION THEREOF” (SUZHOU ZELGEN BIOPHARMACEUTICALS CO., LTD., priority 2022, published 2025):

Assays:
[1] = system: ERK phosphorylation in KRAS^G12D mutant cells (AGS); assay: AGS ERK phosphorylation inhibition experiment; type: cell-based; conditions: 1 hour compound, hEGF 10 minutes
Experimental: (§1) KRAS^G12D mutant cells (such as GP2D, AGS, etc.) were seeded in a 384-well plate and cultured overnight in a 37° C., 5% CO2 incubator.
(§2) 200 nL of diluted compound was added with Echo 500 to a final DMSO concentration of 0.5%, and cultured in a 37° C., 5% CO2 incubator for 1 hour. Then hEGF was added for acting for 10 minutes.
(§3) The culture medium was discarded, and then cell fixative was added to fix the cells.
(§4) The cells were washed once with PBS, and then incubated with cold 100% methanol.
(§5) Methanol was removed and the cells were washed with PBS.
(§6) PBS was removed, and each well was added with Li-Cor blocking buffer, and blocked at room temperature for 1 hr.
(§7) The blocking solution was removed, and primary antibody mixture was added to each well, and incubated at […] 4° C. overnight.
(§8) The primary antibody mixture was removed, and the cells were washed by adding PBST for 3 times.
(§9) Secondary antibody mixture was added and incubated at room temperature in the dark for 45 min.
(§10) The secondary antibody mixture was removed, and the cells were washed by adding PBST for 3 times. Finally, PBST was suctioned out, and the plate was centrifuged upside down at 1000 rpm for 1 min.
(§11) The plate was read by Odyssey CLx.

[2] = system: ERK phosphorylation in KRAS^G12D mutant cells (GP2D); assay: GP2D ERK phosphorylation inhibition experiment; type: cell-based; conditions: 1 hour compound, hEGF 10 minutes
Experimental: as §1, §2, §3, §4, §5, §6, §7, §8, §9, §10, §11

in vivo = conditions: male, ICR, mouse, po, 30 mg/kg
Experimental: (§13) Male ICR mice, weighing 22-24 g, were fasted overnight and orally administered with 30 mg/kg of a solution of the compound of the present invention or the control compound [10% DMSO+60% PEG400+30% aqueous solution]. Blood was collected at 0.25, 0.5, 1.0, 2.0, 4.0, 6.0, 8.0, 12.0 and 24 h after administration of the compound of the present invention respectively, and the concentration of the compound of the present invention or the control compound in plasma was determined by LC/MS/MS.

GP2D = assay: Cell proliferation inhibition, GP2D (CellTiter-Glo 3D, 7 days); type: cell-based; conditions: 168 h
Method in brief: (§12)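 Cells exposed to compound (final DMSO 0.5%) in duplicate for 7 days at 37 °C, 5% CO2, then CellTiter-Glo 3D added with 20 min shaking and 2 h dark incubation before luminescence. Inhibition normalized to medium and blank controls; IC50, minimum and maximum inhibition from curve fits.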

AGS = assay: Cell proliferation inhibition, AGS (CellTiter-Glo 3D, 7 days); type: cell-based; conditions: Homo sapiens, 168 h
Experimental: • (a) Resuscitating cells in T75 cell culture flask: • (b) When the cell confluence reaches 80-90%, subculturing the cells.
The diluted test compound was added to a 384-well cell culture plate with a nanoliter pipetting system, and duplicate wells were set up. An equal volume of culture medium was added to the positive control group; and an equal volume of DMSO was added to the negative control group, then centrifugation was conducted at 1000 rpm for 1 min at room temperature.
Cells were inoculated into a) 384-well culture plate, with an equal volume of cells added to the negative control group, and only an equal volume of culture medium added to the positive control group. The plate was centrifuged at 1000 rpm for 1 min at room temperature, and the final DMSO concentration of the compound was 0.5% at last. The plate was placed in a 37° C., 5% CO2 constant temperature incubator for 7 days.
20 μL/well of CellTiter-Glo® 3D to b) was added to 384-well cell culture plate, and the plate was shook at 320 rpm for 20 min in the dark, and incubated at room temperature in the dark for 2 hrs.
The luminescence value was read using an Envision multi-functional microplate reader.
The inhibition rate (IR) of the test compound was calculated using the following formula: IR (%)=(1−(RLU compound−RLU blank control)/(RLU meidum control−RLU blank control))*100%. The inhibition rates of different concentrations of compounds were calculated in Excel, and then the inhibition curves were plotted and the related parameters (including the minimum inhibition rate, maximum inhibition rate and IC50) were calculated using GraphPad Prism software.

AsPC-1 = assay: Cell proliferation inhibition, AsPC-1 (CellTiter-Glo 3D, 7 days); type: cell-based; conditions: Homo sapiens, ASPC1, 168 h; AsPC-1, 7 days
Method in brief: as §12

[3] = Pharmacokinetic test evaluation in mice, oral; conditions: male ICR mice, oral 30 mg/kg, plasma
Experimental: as §13

Row | SMILES | IC50 ([1]; Homo sapiens) [nM] | IC50 (GP2D) [nM] | IC50 (AGS) [nM] | IC50 (AsPC-1) [nM] | other results
1 | C#Cc1c(F)ccc2cc(O)cc(-c3ncc4c(N5C[C@H]6CC[C@@H](C5)N6)nc(OCC56CCCN5CC5(C6)CC5(F)F)nc4c3F)c12 (single isomer, unassigned) [Example 16A] |  |  |  |  | IC50 [1]: 10.6 nM
2 | C#Cc1c(F)ccc2cc(O)cc(-c3ncc4c(N5C[C@H]6CC[C@@H](C5)N6)nc(OCC56CCCN5CC5(C6)CC5(F)F)nc4c3F)c12 (single isomer, unassigned) [Example 16B] |  |  |  |  | IC50 [1]: 3.34 nM
3 | C#Cc1c(F)ccc2cc(O)cc(-c3ncc4c(N5C[C@H]6CC[C@@H](C5)N6)nc(OC[C@]56CCCN5[C@H](COC)CC6)nc4c3F)c12 [Example 1 Isomer 1A, 4-(4-((1R,5S)-3,8-diazabicyclo[3.2.1]octan-3-yl)-8-fluoro-2-((3S,7aR)-(3-(methoxymethyl)tetrahydro-1H-pyrrolizin-7a(5H)-yl)methoxy)pyridino[4,3-d]pyrimidin-7-yl)-5-ethynyl-6-fluoronaphthalen-2-ol] | 9.67 |  |  |  | IC50 [2]: 2.6 nM
4 | C#Cc1c(F)ccc2cc(O)cc(-c3ncc4c(N5C[C@H]6CC[C@@H](C5)N6)nc(OC[C@@]56CCCN5[C@@H](COC)CC6)nc4c3F)c12 [Example 1 Isomer 1B, 4-(4-((1R,5S)-3,8-diazabicyclo[3.2.1]octan-3-yl)-8-fluoro-2-((3R,7aS)-(3-(methoxymethyl)tetrahydro-1H-pyrrolizin-7a(5H)-yl)methoxy)pyridino[4,3-d]pyrimidin-7-yl)-5-ethynyl-6-fluoronaphthalen-2-ol] | 3.76 |  |  |  | IC50 [2]: 2.1 nM
5 | C#Cc1c(F)ccc2cc(O)cc(-c3ncc4c(N5C[C@H]6CC[C@@H](C5)N6)nc(OC[C@]56CCCN5[C@@H](COC)CC6)nc4c3F)c12 [Example 1 Isomer 2A, 4-(4-((1R,5S)-3,8-diazabicyclo[3.2.1]octan-3-yl)-8-fluoro-2-((3R,7aR)-(3-(methoxymethyl)tetrahydro-1H-pyrrolizin-7a(5H)-yl)methoxy)pyridino[4,3-d]pyrimidin-7-yl)-5-ethynyl-6-fluoronaphthalen-2-ol] | 19 |  |  |  | 
6 | C#Cc1c(F)ccc2cc(O)cc(-c3ncc4c(N5C[C@H]6CC[C@@H](C5)N6)nc(OC[C@@]56CCCN5[C@H](COC)CC6)nc4c3F)c12 [Example 1 Isomer 2B, 4-(4-((1R,5S)-3,8-diazabicyclo[3.2.1]octan-3-yl)-8-fluoro-2-((3S,7aS)-(3-(methoxymethyl)tetrahydro-1H-pyrrolizin-7a(5H)-yl)methoxy)pyridino[4,3-d]pyrimidin-7-yl)-5-ethynyl-6-fluoronaphthalen-2-ol] | 139 |  |  |  | 
7 | C#Cc1c(F)ccc2cc(O)cc(-c3ncc4c(N5CC6CCC(C5)N6)nc(OCC56CCCN5CC5(CC5)C6)nc4c3F)c12 [Example 9, 4-(4-(1R,5S)-3,8-diazabicyclo[3.2.1]octan-3-yl)-2-(dihydro-1′H,3′H-spiro[1,2′-pyrrolizin]-7a′(5′H)-yl)methoxy)-8-fluoropyridino[4,3-d]pyrimidin-7-yl)-5-ethynyl-6-fluoro-naphthalen-2-ol] | 8.2 |  |  |  | 
8 | Nc1cc(Cl)c(C(F)(F)F)c(-c2ncc3c(N4C[C@H]5CC[C@@H](C4)N5)nc(OC[C@@]45CCCN4C[C@@]4(CC4(F)F)C5)nc3c2F)c1 [Example 27, 3-(4-((1R,5S)-3,8-diazabicyclo[3.2.1]octan-3-yl)-2-(((1S,7a'S)-2,2-difluorodihydro-1′H,3′H-spiro[cyclopropan-1,2′-pyrrolizin]-7a′(5′H)-yl)methoxy)-8-fluoropyridino[4,3-d]pyrimidin-7-yl)-5-chloro-4-(trifluoromethyl)aniline] |  | 0.38 | 5.24 | 4.14 | AUC(0-inf) (in vivo): 5650 ng·h/mL; AUC(0-t) (in vivo): 5090 ng·h/mL; Cmax (in vivo): 953 ng/mL; Tmax (in vivo): 0.25 h; half-life (in vivo): 9.32 h
9 | Nc1cc(F)c(C(F)(F)F)c(-c2ncc3c(N4C[C@H]5CC[C@@H](C4)N5)nc(OC[C@@]45CCCN4C[C@@]4(CC4(F)F)C5)nc3c2F)c1Cl [Example 36, 3-(4-((1R,5S)-3,8-diazabicyclo[3.2.1]octan-3-yl)-2-(((1S,7a'S)-2,2-difluorodihydro-1′H,3′H-spiro[cyclopropan-1,2′-pyrrolizin]-7a′(5′H)-yl)methoxy)-8-fluoropyridino[4,3-d]pyrimidin-7-yl)-2-chloro-5-fluoro-4-(trifluoromethyl)aniline] |  | 20.4 | 298 | 167 | 
10 | Nc1cc(F)c(Cl)c(-c2ncc3c(N4C[C@H]5CC[C@@H](C4)N5)nc(OC[C@@]45CCCN4C[C@@]4(CC4(F)F)C5)nc3c2F)c1Cl [Example 37, 3-(4-((1R,5S)-3,8-diazabicyclo[3.2.1]octan-3-yl)-2-(((1S,7a'S)-2,2-difluorodihydro-1′H,3′H-spiro[cyclopropan-1,2′-pyrrolizin]-7a′(5′H)-yl)methoxy)-8-fluoropyridino[4,3-d]pyrimidin-7-yl)-2,4-dichloro-5-fluoroaniline] |  | > 100 | > 1000 | > 1000 | 
11 | Nc1cc(-c2ncc3c(N4C[C@H]5CC[C@@H](C4)N5)nc(OC[C@@]45CCCN4C[C@@]4(CC4(F)F)C5)nc3c2F)c(C(F)(F)F)c(Cl)c1F [Example 41, 5-(4-((1R,5S)-3,8-diazabicyclo[3.2.1]octan-3-yl)-2-(((1S,7a'S)-2,2-difluorodihydro-1′H,3′H-spiro[cyclopropan-1,2′-pyrrolizin]-7a′(5′H)-yl)methoxy)-8-fluoropyridino[4,3-d]pyrimidin-7-yl)-3-chloro-2-fluoro-4-(trifluoromethyl)aniline] |  | 1.41 | 16.6 | 14.2 | 
12 | Cc1c(F)c(N)cc(-c2ncc3c(N4C[C@H]5CC[C@@H](C4)N5)nc(OC[C@@]45CCCN4C[C@@]4(CC4(F)F)C5)nc3c2F)c1C(F)(F)F [Example 42, 5-(4-((1R,5S)-3,8-diazabicyclo[3.2.1]octan-3-yl)-2-(((1S,7a'S)-2,2-difluorodihydro-1′H,3′H-spiro[cyclopropan-1,2′-pyrrolizin]-7a′(5′H)-yl)methoxy)-8-fluoropyridino[4,3-d]pyrimidin-7-yl)-2-fluoro-3-methyl-4-(trifluoromethyl)aniline] |  | 0.68 | 13.9 | 8.83 | 
13 | N#Cc1c(N)ccc(Cl)c1-c1ncc2c(N3C[C@H]4CC[C@@H](C3)N4)nc(OC[C@@]34CCCN3C[C@@]3(CC3(F)F)C4)nc2c1F [Example 51, 2-(4-((1R,5S)-3,8-diazabicyclo[3.2.1]octan-3-yl)-2-(((1S,7a'S)-2,2-difluorodihydro-1′H,3′H-spiro[cyclopropan-1,2′-pyrrolizin]-7a′(5′H)-yl)methoxy)-8-fluoropyridino[4,3-d]pyrimidin-7-yl)-6-amino-3-chlorobenzonitrile] |  | > 100 | > 1000 | > 1000 | 
14 | Cc1c(N)cnc(C(F)(F)F)c1-c1ncc2c(N3C[C@H]4CC[C@@H](C3)N4)nc(OC[C@@]34CCCN3C[C@@]3(CC3(F)F)C4)nc2c1F [Example 54, 5-(4-((1R,5S)-3,8-diazabicyclo[3.2.1]octan-3-yl)-2-(((1S,7a'S)-2,2-difluorodihydro-1′H,3′H-spiro[cyclopropan-1,2′-pyrrolizin]-7a′(5′H)-yl)methoxy)-8-fluoropyridino[4,3-d]pyrimidin-7-yl)-4-methyl-6-(trifluoromethyl)pyridin-3-amine] |  | > 100 | > 1000 | > 1000 | 
15 | C#Cc1c(F)ccc2cc(O)cc(-c3ncc4c(N5CC6CCC(C5)N6)nc(OC[C@@]56CCCN5C[C@H](F)C6)nc4c3F)c12 [MRTX1133, reference compound] |  | 1.28 | 5.15 | 6.77 | AUC0-∞ [3]: BLOQ; AUC(0-t) [3]: BLOQ; Cmax [3]: BLOQ
